In brackets after ≈: the same amount, converted by molar mass.
Assays:
[1] = Kinetic solubility of the compound in 0.01M HCl at pH 2 by nephelometry analysis; format: physicochemical; details: read-out: Kinetic_solubility
[2] = Kinetic solubility of the compound in phosphate buffer at pH 6.5 by nephelometry analysis; format: physicochemical; details: read-out: Kinetic_solubility
[3] = physchem; details: octanol/water, pH 7.4
[4] = Plasma concentration in Swiss mouse at 30 mg/kg, po after 24 hrs; format: ADME, organism-based; set-up: dose 30 mg/kg, route oral
[5] = Plasma concentration in Swiss mouse at 30 mg/kg, po after 0.5 hrs; format: ADME, organism-based; set-up: dose 30 mg/kg, route oral
[6] = Plasma concentration in Swiss mouse at 30 mg/kg, po after 8 hrs; format: ADME, organism-based; set-up: dose 30 mg/kg, route oral
[7] = tested on: Plasma; test: Average plasma concentration in Swiss mouse at 30 mg/kg, po after up to 8 hrs; format: ADME, organism-based; set-up: dose 30 mg/kg, route oral; details: in vivo
[8] = tested on: Plasma; test: Average plasma concentration in Swiss mouse at 30 mg/kg, po after up to 24 hrs; format: ADME, organism-based; set-up: dose 30 mg/kg, route oral; details: in vivo

Row | SMILES | solubility kinetic [1] | solubility kinetic [2] | logD [3] | concentration at 24 h [4] | concentration at 0.5 h [5] | concentration at 8 h [6] | Cave [7] | Cave [8]
1 | COc1ccc(-c2cc(-c3cccc(S(C)(=O)=O)c3)cnc2N)cn1 | > 100 µg/mL | 25 µg/mL (≈ 70.3 µM) | 2.3 | – | – | – | – | –
2 | COc1ccc(-c2cc(-c3ccc(NS(C)(=O)=O)cc3)cnc2N)cn1 | > 100 µg/mL | 25 µg/mL (≈ 67.5 µM) | 2.2 | – | – | – | – | –
3 | COc1ccc(-c2cc(-c3ccc(-c4nnc(C)o4)cc3)cnc2N)cn1 | > 100 µg/mL | 12.5 µg/mL (≈ 34.8 µM) | 2.6 | – | – | – | – | –
4 | COc1ccc(-c2cc(-c3ccc(S(=O)(=O)N4CCN(C)CC4)cc3)cnc2N)cn1 | > 100 µg/mL | 25 µg/mL (≈ 56.9 µM) | 2.7 | – | – | – | – | –
5 | COc1ccc(-c2cc(-c3ccc(OC(F)(F)F)cc3)cnc2N)cn1 | > 100 µg/mL | 1.6 µg/mL (≈ 4.43 µM) | 4.3 | – | – | – | – | –
6 | CNS(=O)(=O)c1ccc(-c2cnc(N)c(-c3ccc(OC)nc3)c2)cc1 | > 100 µg/mL | 12.5 µg/mL (≈ 33.7 µM) | 2.2 | – | – | – | – | –
7 | COc1ccc(-c2cc(-c3ccc(S(C)(=O)=O)cc3C(F)(F)F)cnc2N)cn1 | > 100 µg/mL | 12.5 µg/mL (≈ 29.5 µM) | 2.7 | – | – | – | – | –
8 | COc1ccc(-c2cc(-c3ccc4nccn4c3)cnc2N)cn1 | > 100 µg/mL | 12.5 µg/mL (≈ 39.4 µM) | 2.4 | – | – | – | – | –
9 | COc1ccc(-c2cc(-c3cccc(C(N)=O)c3)cnc2N)cn1 | > 100 µg/mL | 12.5 µg/mL (≈ 39 µM) | 1.7 | – | – | – | – | –
10 | COc1ccc(-c2cc(-c3ccc(C(=O)NCCCO)cc3)cnc2N)cn1 | > 100 µg/mL | 12.5 µg/mL (≈ 33 µM) | – | – | – | – | – | –
11 | COc1ccc(-c2cnc(N)c(-c3ccc(OC)nc3)c2)cn1 | > 100 µg/mL | 25 µg/mL (≈ 81.1 µM) | 2.8 | – | – | – | – | –
12 | COc1ccc(-c2cc(-c3ccc(-n4cncn4)cc3)cnc2N)cn1 | > 100 µg/mL | 6.3 µg/mL (≈ 18.3 µM) | 2.4 | – | – | – | – | –
13 | Nc1ncc(-c2ccc(C(=O)N3CCNCC3)cc2)cc1-c1ccc(C(F)(F)F)nc1 | > 100 µg/mL | 50 µg/mL (≈ 117 µM) | 2.4 | – | – | – | – | –
14 | COc1ccc(-c2cc(-c3ccc(S(C)(=O)=O)c(F)c3)cnc2N)cn1 | > 100 µg/mL | 6.3 µg/mL (≈ 16.9 µM) | 2.5 | – | – | – | – | –
15 | CN1CCN(C(=O)c2ccc(-c3cnc(N)c(-c4ccc(C(F)(F)F)cc4)c3)cc2)CC1 | > 100 µg/mL | 25 µg/mL (≈ 56.8 µM) | 3.9 | – | – | – | – | –
16 | COc1ccc(-c2cc(-c3ccc(S(=O)(=O)N(C)C)cc3)cnc2N)cn1 | > 100 µg/mL | 6.3 µg/mL (≈ 16.4 µM) | 2.8 | – | – | – | – | –
17 | COc1ccc(-c2cc(-c3ccc(-n4cccn4)cc3)cnc2N)cn1 | > 100 µg/mL | 3.1 µg/mL (≈ 9.03 µM) | 3.1 | – | – | – | – | –
18 | CN1CCN(C(=O)c2ccc(-c3cnc(N)c(-c4ccc(C(F)(F)F)nc4)c3)cc2)CC1 | > 100 µg/mL | > 100 µg/mL | 2.9 | – | – | – | – | –
19 | COc1ccc(-c2cc(-c3ccc4cnn(C)c4c3)cnc2N)cn1 | > 100 µg/mL | 6.3 µg/mL (≈ 19 µM) | 3 | – | – | – | – | –
20 | COc1ccc(-c2cc(-c3ccc(S(=O)(=O)NC4CC4)cc3)cnc2N)cn1 | > 100 µg/mL | 6.3 µg/mL (≈ 15.9 µM) | 2.7 | – | – | – | – | –
21 | COc1ccc(-c2cc(-c3ccc(S(N)(=O)=O)cc3)cnc2N)cn1 | > 100 µg/mL | 12.5 µg/mL (≈ 35.1 µM) | 1.8 | – | – | – | – | –
22 | COc1ccc(-c2cc(-c3ccc4ncccc4c3)cnc2N)cn1 | > 100 µg/mL | 6.3 µg/mL (≈ 19.2 µM) | 2.9 | – | – | – | – | –
23 | Nc1ncc(-c2ccc(C(=O)N3CCNCC3)cc2)cc1-c1ccc(C(F)(F)F)cc1 | > 100 µg/mL | 25 µg/mL (≈ 58.6 µM) | 3.3 | – | – | – | – | –
24 | COc1ccc(-c2cc(-c3ccc(C(F)(F)F)cc3)cnc2N)cn1 | > 100 µg/mL | 1.6 µg/mL (≈ 4.63 µM) | 4.2 | – | – | – | – | –

The remaining lines, values ahead:

Row | solubility kinetic [1] | solubility kinetic [2] | logD [3] | concentration at 24 h [4] | concentration at 0.5 h [5] | concentration at 8 h [6] | Cave [7] | Cave [8] | SMILES
25 | > 100 µg/mL | > 100 µg/mL | 2.1 | < 1 nM | 30800 nM | 6400 nM | 25100 nM | – | COc1ccc(-c2cc(-c3ccc(C(=O)N(C)C)cc3)cnc2N)cn1
26 | > 100 µg/mL | > 100 µg/mL | 1.9 | – | – | – | – | – | COc1ccc(-c2cc(-c3ccc(C(=O)NCCN4CCOCC4)cc3)cnc2N)cn1
27 | 12.5 µg/mL (≈ 38.9 µM) | 6.3 µg/mL (≈ 19.6 µM) | 0.8 | – | – | – | – | – | COc1ccc(-c2cc(-c3ccc(C(=O)O)cc3)cnc2N)cn1
28 | > 100 µg/mL | 6.3 µg/mL (≈ 14.7 µM) | 3.1 | 1 nM | 300 nM | 50 nM | 200 nM | 100 nM | Nc1ncc(-c2ccc(C(=O)N3CCOCC3)cc2)cc1-c1ccc(C(F)(F)F)cc1
29 | > 100 µg/mL | > 100 µg/mL | 2 | – | – | – | – | – | COc1ccc(-c2cc(-c3ccc(C(=O)N4CCN(C)CC4)cc3)cnc2N)cn1
30 | > 100 µg/mL | 25 µg/mL (≈ 58.4 µM) | 2.4 | – | 4110 nM | 840 nM | 3400 nM | – | Nc1ncc(-c2ccc(C(=O)N3CCOCC3)cc2)cc1-c1ccc(C(F)(F)F)nc1
31 | 50 µg/mL (≈ 150 µM) | 50 µg/mL (≈ 150 µM) | 1.8 | – | – | – | – | – | CNC(=O)c1ccc(-c2cnc(N)c(-c3ccc(OC)nc3)c2)cc1
32 | > 100 µg/mL | 12.5 µg/mL (≈ 39 µM) | 1.7 | 10 nM | 10600 nM | 1300 nM | 8200 nM | 2400 nM | COc1ccc(-c2cc(-c3ccc(C(N)=O)cc3)cnc2N)cn1
33 | > 100 µg/mL | > 100 µg/mL | 2.5 | – | – | – | – | – | COc1ccc(-c2cc(-c3ccc(C(=O)NCCN4CCCC4)cc3)cnc2N)cn1
34 | 25 µg/mL (≈ 64 µM) | 25 µg/mL (≈ 64 µM) | 2 | – | 10300 nM | 800 nM | 7800 nM | – | COc1ccc(-c2cc(-c3ccc(C(=O)N4CCOCC4)cc3)cnc2N)cn1
35 | > 100 µg/mL | 6.3 µg/mL (≈ 14.8 µM) | 2.7 | – | – | – | – | – | COc1ccc(-c2cc(-c3ccc(S(=O)(=O)N4CCOCC4)cc3)cnc2N)cn1
